Converted amounts (≈) assume the structure as drawn. Where two headings read alike, the source gives them in different places. Blank lines part the entries; values can stand above or below the compound they belong to.
Tests used:
Helicobacter pylori = experiment: Anti Helicobacter pylori activity, overall observations; type: cell-based; details: strains 80A and ATCC 43504
[1] = system: Helicobacter pylori clinical strain 80A; experiment: Anti Helicobacter pylori disc diffusion sensitivity assay, clinical strain 80A; type: cell-based; details: 10 ng/disc (standard drug)
Method: (§1) For water containing sample, discs were first placed on the plate and then 5-10 μl of each sample, was added. The results are shown in below table: 10.

[2] = system: Helicobacter pylori standard strain ATCC 43504; experiment: MIC/MBC microbroth dilution assay, strain ATCC 43504; type: cell-based; details: ATCC43504, cell count ~10^6-10^7 CFU/ml
Method: (§2) • MICs of the two samples were determined employing one clinical (80A) and one standard (ATCC 43504) strain (Osato, 2000). • Two-fold serial dilutions of the samples were performed in 96-well microtitre plate. • Plates were kept for appropriate time in Incubator under optimum growth condition. • Following incubation, the plates were examined visually, and the lowest concentration showing complete inhibition of growth was recorded as the MIC of the respective sample.
(§3) • Aliquots of culture in which no growth had been detected were taken from the wells of the above microtitre plates and used to streak on fresh agar plates. • MBCs were determined by visual inspection of such plates after further incubation and the point where no growth (less than 10 colony) appeared was considered as the MBCs.

[3] = system: Helicobacter pylori standard strain ATCC 43504; experiment: Anti Helicobacter pylori disc diffusion sensitivity assay, standard strain ATCC 43504; type: cell-based; details: 40 ng/disc (standard drug)
Method: as §1

[4] = system: Helicobacter pylori clinical strain 80A; experiment: MIC/MBC microbroth dilution assay, strain 80A; type: cell-based; details: cell count ~10^6-10^7 CFU/ml
Method: as §2, §3

[5] = biological target: porcine pancreatic elastase (Sus scrofa, UniProt P00772); experiment: Elastase inhibition assay; type: biochemical
Chain of porcine pancreatic elastase (P00772 27-266): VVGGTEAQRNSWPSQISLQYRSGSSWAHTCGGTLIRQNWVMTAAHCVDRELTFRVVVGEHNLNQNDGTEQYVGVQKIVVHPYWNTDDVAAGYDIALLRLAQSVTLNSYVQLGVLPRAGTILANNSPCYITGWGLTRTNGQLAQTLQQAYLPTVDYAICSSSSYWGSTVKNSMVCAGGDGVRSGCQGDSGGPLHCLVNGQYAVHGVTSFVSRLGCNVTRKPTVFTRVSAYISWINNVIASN
Method: In brief, 233 μl of each test solutions/reference standard (various concentrations) in 100 mM Tris-HCl pH8.0 and 7 μl of enzyme (porcine pancreatic elastase, 0.84 units/ml) solution was incubated at 37° C. for 15 mins. Following incubation, 20 μl of substrate (n-succinyl-ala-ala-ala-p-nitroanilide) solution was added and incubated at 37° C. for 30 mins. The absorbance was measured at 405 nm. A control reaction was carried out without the test sample. The percentage inhibition was calculated by the equation [absorbance (control)−absorbance (test)]/absorbance (control)×100]. The IC50 values were determined using log-probit analysis.

[6] = system: pylorus ligation induced ulcer; experiment: Pylorus ligation induced ulcer model; type: in vivo, albino Wistar rats; details: 10 mg/kg; mean ± SEM, n = 6
From the text: Details of the study are provided in the below table: 4. [table]

[7] = system: cold stress induced ulcer; experiment: Cold stress induced ulcer model; type: in vivo, albino Wistar rats
[8] = porcine pancreatic elastase, log-probit analysis, read-out: IC50 in elastase inhibition assay (converted)

Structure (SMILES): CC[C@H]1OC(=O)[C@H](C)[C@@H](O[C@H]2C[C@@](C)(OC)[C@@H](O)[C@H](C)O2)[C@H](C)[C@@H](O[C@@H]2O[C@H](C)C[C@H](N(C)C)[C@H]2O)[C@](C)(OC)C[C@@H](C)C(=O)[C@H](C)[C@@H](O)[C@]1(C)O [Clarithromycin]
- anti Helicobacter pylori activity (disc diffusion observation) (Helicobacter pylori): showed appropriate zone of inhibition
- Inhibition Zone Diameter in strain 80A [1]: 1.8-2.0 cm
- MBC [2]: 0.05 µg/mL (≈ 0.0668 µM)
- MIC [2]: 0.025 µg/mL (≈ 0.0334 µM)
- Inhibition Zone Diameter in strain ATCC 43504 [3]: 1.8-2.0 cm
- MBC [4]: 0.025 µg/mL (≈ 0.0334 µM)
- MIC [4]: 0.013 µg/mL (≈ 0.0174 µM)

Structure (SMILES): COc1ccc2[nH]c([S+]([O-])Cc3ncc(C)c(OC)c3C)nc2c1 (centres unmarked) [Omeprazole]
- Gastric content [6]: 2.42 ± 0.24 mL
- Total acidity [6]: 15.33 ± 0.92 mEq/L/100 g
- Ulcer index [6]: 3.33 ± 1.38
- pH [6]: 6.89 ± 0.14
- Ulcer index ([7]; 10 mg/kg, mean ± SEM, n = 6): 0.67 ± 0.49
- pH ([7]; 10 mg/kg, mean ± SEM, n = 6): 6.50 ± 0.22
- pH of stomach ([7]; comparison Table 12 remark, ulcer model not specified): the pH to more than 6

Structure (SMILES): C[C@H]1[C@H](C)CC[C@]2(C(=O)O)CC[C@]3(C)C(=CC[C@@H]4[C@@]5(C)CC[C@H](O)C(C)(C)[C@@H]5CC[C@]43C)[C@H]12 [Ursolic acid]
- IC50 [5]: 23600 nM

The remaining lines, values ahead:

- IC50 [5, 8]: 2860 nM
Structure (SMILES): CCCCCCCCCCCCCCCCCCCCCCOC(=O)/C=C/c1ccc(O)c(O)c1 [Docosyl caffeate (2), docosyl caffeate]

- IC50 [5, 8]: 2150 nM
Structure (SMILES): CCCCCCCCCCCCCCCCCCCCOC(=O)/C=C/c1ccc(O)c(O)c1 [Eicosanyl caffeate(1), eicosanyl caffeate]
